Values belong to the molecule of their own block, whether it stands above or below them.
How the values were obtained:
[1] = Hygroscopicity study (dynamic vapor sorption); format: physicochemical; conditions: 25° C., 0%-90%-0% RH
Procedure: Example 7: Hygroscopicity Study of Crystalline Form B of Compound of Formula (I)
Instrument model: SMS DVS Advantage
Test conditions: the sample (10-20 mg, the crystalline form B prepared in Example 3) was placed in DVS sample tray for testing.
Balancing: dm/dt=0.01%/min (shortest: 10 min, longest: 180 min)
Drying: drying at 0% RH for 120 min
RH (%) test gradient: 10%

[2] = Solid stability testing of crystalline form B (HPLC); format: physicochemical
Procedure: Example 6: Stability Study of Solid Crystalline Form B of the Compound of Formula (I) High Performance Liquid Chromatography (HPLC)
The chromatographic conditions of the HPLC method are seen in table below: Chromatographic column: Zorbax SB C-18, 4.6 mm×150 mm, 5 μm (PDS-HPLC-007)
Mobile phase A: 0.1% TFA in water
Preparation of sample: the sample was dissolved in a mixed solvent of acetonitrile and water (acetonitrile:water=50:50 (v/v))
The stability of the compound in the following conditions was examined, and samples were taken at different time points to detect the content. About 5 mg of the crystalline form B of the compound of formula (I) was accurately weighted in duplicate, transferred to a dry and clean glass bottle, spread into a thin layer as test samples, and placed in experimental conditions of influential factors ((60° C.), (relative humidity 92.5%), illumination (total illumination of 1.2×106 Lux·hr/near UV energy of 200 w·hr/m2), (40° C., relative humidity 75%), or (60° C., relative humidity 75%)). The samples were covered with aluminum foils having holes, and thus completely exposed to the conditions. Sampling analysis was performed at 5 days, 10 days, 1 month, 2 months and 3 months. The samples were completely exposed to illumination (visible light of 1200000 Lux, UV of 200 W) at room temperature.

[3] = in vivo; cited from earlier work
[4] = cited from earlier work
[5] = test system: PDE4; conditions: cited from earlier work
[6] = test system: cigarette smoke-induced rat acute lung injury model; assay: Pharmacodynamic study in cigarette smoke-induced rat acute lung injury model; format: in vivo, Sprague-Dawley rats; conditions: atomization 0.05 and 0.15 mg/ml, 30 min daily
Procedure: Experimental Example 5: Pharmacodynamic Study in Cigarette Smoke-Induced Rat Acute Lung Injury Model
Male Sprague-Dawley rats (supplied by Shanghai SLAC Laboratory Animal Co., Ltd.), SPF grade, approximately 200 g.
1. Animals were randomly divided into 6 groups according to body weight after arrival and a one-week acclimation;
2. On days 1-3 of the experiment, the corresponding compound of each group was atomized for 30 min. The animals in the model group and the treatment groups were exposed to cigarette smoke for 1 h, and after a 4-h interval, the animals were exposed to cigarette smoke again for 1 h. Cigarette smoke was given twice daily for 3 consecutive days. The control group animals were exposed to room air;
3. On day 4 of the experiment, the corresponding compound of each group was atomized for 30 min, and then the animals in the model group and the treatment groups were given the atomized 150 ng/mL LPS for 15 min by inhalation. After 3 h (from the time starting atomization), the animals were exposed to cigarette smoke for 1 h, and then the lung function (Penh and F) of the animals was examined; bronchoalveolar lavage fluid was collected for cell counting after the animals were euthanized with CO2. […]

[7] = Pharmacokinetic study in beagle dogs; format: in vivo
Procedure: Experimental Example 3: Pharmacokinetic Study in Beagle Dogs
In this study, male beagle dogs were selected as test animals, and LC-MS/MS was used for quantitatively measuring the drug concentration in plasma of beagle dogs at different time points after intravenous injection or intragastric administration of the compound of formula (I) so as to evaluate the pharmacokinetics of the compound of formula (I) in beagle dogs.
The clear solution of the compound of formula (I) was injected into two beagle dogs of 10-12 kg via the cephalic vein or saphenous vein, and the clear solution of the compound of formula (I) was administered intragastrically to two beagle dogs of 10-12 kg (fasted overnight). The animals were all subjected to a blood collection of approximately 500 μL each time from peripheral veins at 0.0333, 0.0833, 0.25, 0.5, 1, 2, 4, 6, 8 and 24 h post-dose, and the blood was transferred into commercial centrifuge tubes containing 0.85-1.15 mg of K2 EDTA.2H2O anticoagulant, and plasma was separated by centrifugation at 3000 g for 10 min at 4° C. The plasma concentration was measured by LC-MS/MS, and the relevant pharmacokinetic parameters were calculated using pharmacokinetic software WinNonlin™ Version 6.3 (Pharsight, Mountain View, Calif.) using non-compartmental model linear-log trapezoidal method.

[8] = intragastric administration 3 mg/kg
[9] = intravenous injection 0.5 mg/kg

Hygroscopicity (DVS, in words) [1]: low hygroscopicity
Total impurities % ([2]; 40° C.-75% RH-1 month): 0.10%
Total impurities % ([2]; 40° C.-75% RH-2 months): 0.08%
Total impurities % ([2]; 40° C.-75% RH-3 months): 0.09%
Total impurities % ([2]; 40° C.-75% RH-10 days): 0.10%
Total impurities % ([2]; 60° C.-75% RH-1 month): 0.10%
Total impurities % ([2]; 60° C.-75% RH-10 days): 0.10%
Total impurities % ([2]; 60° C.-5 days): 0.10%
Total impurities % ([2]; 60° C.-10 days): 0.11%
Total impurities % ([2]; 92.5% RH-5 days): 0.11%
Total impurities % ([2]; 92.5% RH-10 days): 0.10%
Total impurities % ([2]; Day 0): 0.11%
Total impurities % ([2]; Illumination (1.2×106 Lux·hr, near UV 200 w·hr/m2)): 0.10%
Total impurities % ([2]; In the dark): 0.11%
Solid stability (in words) ([2]; high temperature, high humidity or illumination): good stability
Structure (SMILES): CCOc1cc2c(cc1OC)-c1c/c(=N\c3c(C)cc(C)cc3C)n(CCNC(=O)c3c(O)nnn3C)c(=O)n1CC2

Structure (SMILES): COc1cc2c(cc1OC)-c1c/c(=N\c3c(C)cc(C)cc3C)n(CCNC(N)=O)c(=O)n1CC2 [RPL554]
Plasma clearance (in words) [3]: high plasma clearance
Solubility (in words) [4]: poor solubility
PDE4 inhibitory activity (in words) [5]: unsatisfactory

Area under plasma concentration-time curve (0-inf) [7, 8]: 0.123 µM·h
Peak concentration [7, 8]: 59.4 nM
Time to peak [7, 8]: 0.6 h
Area under plasma concentration-time curve (0-inf) [7, 9]: 0.21 µM·h
Half-life [7, 9]: 18 min
Plasma clearance [7, 9]: 70.3 mL/min/kg
bioavailability ([7]; male, dog, plasma, po, intragastric administration 3 mg/kg): 7.5%
Structure (SMILES): CCOc1cc2c(cc1OC)-c1c/c(=N\c3c(C)cc(C)cc3C)n(CCNC(=O)c3c(O)nnn3C)c(=O)n1CC2 [Compound of formula (I)]
Airway resistance index Penh (Mch challenge) [6]: reduce
Total number of white blood cells in BALF [6]: reduce

Structure (SMILES): COc1cc2c(cc1OC)-c1cc(Oc3c(C(C)C)cccc3C(C)C)nc(=O)n1CC2 [RPL565]
Plasma clearance (in words) [3]: high plasma clearance
Solubility (in words) [4]: poor solubility
PDE4 inhibitory activity (in words) [5]: unsatisfactory

— US20230115817A1, “CRYSTAL OF PDE3/PDE4 DUAL INHIBITOR AND USE THEREOF” (Chia Tai Tianqing Pharmaceutical Group Co., Ltd., priority 2020, published 2023)
